Source: patent publication US8999970B2, “Administration of an anti-obesity compound to individuals with renal impairment” (Arena Pharmaceuticals, Inc., priority 2010, dated 2015)
“Also recorded” adds a separate entry of the source.

Experiment: Dynamic moisture (vapor) sorption of Form III
Assay type: physicochemical

Compound: C[C@H]1CNCCc2ccc(Cl)cc21.C[C@H]1CNCCc2ccc(Cl)cc21.Cl.Cl.O [(R)-8-chloro-1-methyl-2,3,4,5-tetrahydro-1H-3-benzazepine hydrochloride hemihydrate, Form III]
- Hygroscopicity (DMS / DVS): substantially non-hygroscopic; also recorded: FIG. 9: non-hygroscopic
- Water adsorbed (90% RH): less than 0.5 wt %
